Results on 3 compounds are retold here after patent publication US11160787B2, “4-(4-chlorophenyl)-5-methylene-pyrrol-2-one and 5-methylene-4-(p-tolyl)pyrrol-2-one for use in the treatment of gram negative bacterial infections” (priority 2016, dated 2021).

The structures appear in SMILES notation. “Also recorded” adds a separate entry of the source.

In assay [1] the test system is P. aeruginosa PAO1 pqsA::lux. Nature of the assay: pqsA::lux promoter fusion expression in P. aeruginosa PAO1-L biosensor (AQ-dependent quorum sensing). Conditions: for extent of inhibition of light output / pqsA expression at high concentrations: PAO1-L pqsA::lux; for IC50: Pseudomonas aeruginosa, PAO1, read-out: IC50 for inhibition of pqsA::lux expression. It is filed as cell-based, Pseudomonas aeruginosa. The procedure:
The expression of rhl and las AHL- and the pqsA AQ-synthase genes was evaluated using lux-based lasl (FIG. 1), rhll (FIG. 2) and pqsA (FIG. 3) chromosomally integrated promoter fusions. Luminescence was quantified as a function of bacterial growth. The applicant further determined that none of the lactams is growth inhibitory at 100 μM using a large number of strains (figure not shown).
To determine the relative inhibitory activities (IC50s) of 4-(4-chlorophenyl)-5-methylene-pyrrol-2-one (Ref. 488) and 5-methylene-4-(p-tolyl)pyrrol-2-one (Ref. 491), dose response curves were constructed using the same biosensor strain (P. aeruginosa PAO1 pqsA::lux; Fletcher et al, 2007; Ilangovan et al 2013). This strain produces light in response to the endogenous production of AQs such as PQS and HHQ.

Assay [2] deals with T1, PqsR (Pseudomonas aeruginosa, UniProt Q9I4X0).
T1 construct: By using the AQ-non producing P. aeruginosa strain PAO1-L ΔpqsA, pqsA::lux; endogenous in cells; host or cells: P. aeruginosa PAO1-L ΔpqsA, pqsA::lux
As to the kind of experiment: PQS-dependent expression of pqsA::lux in AQ-non producing PAO1-L ΔpqsA (PqsR antagonism). It is filed as cell-based. The procedure: By using the AQ-non producing P. aeruginosa strain PAO1-L ΔpqsA, pqsA::lux, the EC50 value for the native PqsR agonist, PQS was calculated as ˜2 μM (Ilangovan et al. 2013).
The experiment shown in FIG. 8 was then repeated using 4-(4-chlorophenyl)-5-methylene-pyrrol-2-one (Ref. 488) concentrations of 0, 50, 100 and 200 μM.
A partial agonist is a molecule that can bind to and activate a receptor resulting in a non-complete response compared with a full agonist. […] This contrasts with its activity as an antagonist in the presence of 10 or 40 μM PQS.

The subject of assay [3] is P. aeruginosa strain PAO1-L. Nature of the assay: Pyocyanin production by PAO1-L, visually assessed. It is filed as cell-based, Pseudomonas aeruginosa. The note with it: 100 μM (vial 2), 8 h at 37° C., FIG. 5. The text has this:
Pyocyanin is a blue redox-active secondary metabolite and a putative signalling molecule in P. aeruginosa (Jayaseelan et al, 2014). The pyocyanin biosynthetic (phz) genes are regulated by QS and in part via the transcriptional regulator PqsR acting through PqsE (Rampioni et al 2011).
Although qualitative, this observation offers further confirmation of the inhibitory effects of lactam 4-(4-chlorophenyl)-5-methylene-pyrrol-2-one (Ref. 488) on AQ-dependent QS.

Assay [4] deals with PAO1-N ΔpqsAHR pqsA'::lux. As to the kind of experiment: PqsR-independent expression of pqsA'::lux in PAO1-N ΔpqsAHR. It is filed as cell-based, Pseudomonas aeruginosa. The note with it: presence or absence of 40 μM PQS, FIG. 11. An excerpt: PQS is capable of weakly activating pqsA in the absence of PqsR via a mechanism that is not fully understood but appears to depend on the iron chelating properties of PQS. The aim of this experiment was to clarify whether lactam 4-(4-chlorophenyl)-5-methylene-pyrrol-2-one (Ref. 488) is also inhibitory for pqsA expression via the PqsR independent pathway. As previously described, the pqsA′::lux biosensor based on the triple mutant PAO1-N ΔpqsAHR cannot produce AQs and lacks pqsR but still responds to exogenous PQS. This response is however much weaker that the PqsR-dependent response.

Another assay deals with PqsABCD. As to the kind of experiment: HHQ production by PAO1-N ΔpqsAHR pBBR-pqsABCD, TLC with AQ biosensor overlay. It is filed as cell-based, Pseudomonas aeruginosa. Conditions: 488 200 μM, overnight in LB, FIG. 13. An excerpt: To determine whether 4-(4-chlorophenyl)-5-methylene-pyrrol-2-one (Ref. 488) is capable of inhibiting the enzymes (PqsABCD) involved in AQ biosynthesis, the P. aeruginosa PAO1-N ΔpqsAHR was exploited. This mutant cannot produce AQs because the genes coding for the key biosynthetic enzymes (PqsA and PqsH) and regulation (PqsR) have been deleted. To restore AQ production in a PqsR-independent manner in PAO1-N ΔpqsA, the pqsABCD genes were introduced on a plasmid (pBBR pqsABCD; Niewerth et al. 2011). P. aeruginosa PAO1-N ΔpqsAHR and P. aeruginosa PAO1-N ΔpqsAHR pBBR pqsABCD were both incubated overnight in LB with and without 4-(4-chlorophenyl)-5-methylene-pyrrol-2-one (Ref. 488) (200 μM), resuspended to an OD600 1.0. The cultures were extracted with acidified ethyl acetate, the organic phase removed, dried and resuspended in methanol subjected to thin layer chromatography (TLC).
After chromatography using a dichloromethane-methanol mobile phase, the TLC plates were overlaid with a thin agar layer containing the AQ biosensor strain PAO1-L ΔpqsA CTX::pqsA′-luxCDABE (Fletcher et al. 2007) incubated and examined for reporter output (FIG. 13). […] The biosensor strain produces light (FIG. 13 panel C) and pyocyanin (FIG. 13 panel B) in response to AQs that bind to PqsR and activate the pqsA promoter.

The target in assay [5] is T1, PqsR. Conditions: read-out: EC50 of PQS for pqsA::lux expression; PAO1-L ΔpqsA pqsA::lux, without lactam; cited from earlier work.

T1 sequence (Q9I4X0 whole entry): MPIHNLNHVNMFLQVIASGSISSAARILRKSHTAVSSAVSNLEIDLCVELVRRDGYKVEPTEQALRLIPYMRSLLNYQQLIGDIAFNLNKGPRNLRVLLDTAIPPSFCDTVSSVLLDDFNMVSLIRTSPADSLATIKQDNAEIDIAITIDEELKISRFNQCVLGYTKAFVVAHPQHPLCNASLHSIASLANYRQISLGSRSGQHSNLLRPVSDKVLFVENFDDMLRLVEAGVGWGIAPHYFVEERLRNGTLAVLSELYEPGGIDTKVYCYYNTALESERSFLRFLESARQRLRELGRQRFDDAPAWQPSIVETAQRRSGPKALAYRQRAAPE

With `C=C1NC(=O)C=C1c1ccc(C)cc1` [Ref. 491, 5-methylene-4-(p-tolyl)pyrrol-2-one], in assay [1], the “extent of inhibition of light output / pqsA expression at high concentrations” value is “did not inhibit pqsA expression as strongly; also recorded: did not give complete knock out at higher concentration” and the IC50 (as a rule, the point on the concentration scale where inhibition reaches its midpoint) is 44 µM.
In the case of `C=C1NC(=O)C=C1c1ccc(Cl)cc1` [Ref. 488, 4-(4-chlorophenyl)-5-methylene-pyrrol-2-one], in assay [1], the “extent of inhibition of light output / pqsA expression at high concentrations” value is “completely inhibited light output; also recorded: fully knock out the PQS” and the half-inhibitory concentration (IC50) amounted to 22 µM. Further, the “relative inhibition of PqsR-dependent pqsA::lux promoter fusion in screening” value in assay [1] (lactams at 100 μM, FIG. 3) was “most potent inhibitor”. Moreover, the “mode of antagonism of PQS-dependent pqsA::lux expression” value on PqsR [2] (488 at 0, 50, 100 and 200 μM, FIG. 9) is reported as “competitive antagonist”. The “restoration of light output by PQS in the presence of 488” value on PqsR [2] (488 at 50, 100, 200 μM, PAO1-L ΔpqsA, FIG. 9) was “fully restoring light output in the presence of 50 μM but not 100 μM or 200 μM”. The “partial agonist activity (activation of pqsA expression)” value on PqsR [2] (PAO1-L ΔpqsA pqsA'::lux, concentrations up to 800 μM, FIG. 10) is given as “no partial agonist activity”. Besides, the “fold increase of PQS EC50 caused by the lactam” value at PqsR [2] (fixed concentration of 488 (215 μM), range of PQS concentrations) is about 15 fold. Also, in assay [3], the “pyocyanin production in culture supernatant” value was “absence of green pigmentation”. Besides, the “effect on PqsR-independent expression of pqsA” value in assay [4] is recorded as “small inhibitory effect”. For the same compound, the “effect on HHQ biosynthesis” value in the assay on PqsABCD was “did not inhibit HHQ biosynthesis”.
On to `CCCCCCCc1[nH]c2ccccc2c(=O)c1O` [PQS, 2-heptyl-3-hydroxy-4-(1H)-quinolone], for which the EC50 (usually the concentration at which the effect is half-maximal) at PqsR [5] is about 2 µM.
